Test results as given in patent publication US20040077674A1, “Mappicine analogs, intermediates in the synthesis of mappicine analogs and methods of synthesis of mappicine analogs” (priority 2002, published 2004).

Columns and labels:
[1] = molecular target: T1, RNA-dependent DNA polymerase activity of HIV reverse transcriptase (Human immunodeficiency virus type 1 group M subtype B, UniProt P03366); experiment: RNA-dependent DNA polymerase activity assay of HIV reverse transcriptase; assay type: biochemical, HIV-1; conditions: 10 μM inhibitor concentration, activity in presence / in absence of analog x 100
T1 construct: made in house
Experimental: In separate representative assays, mappicine analogs were tested for their ability to inhibit the RNA-dependent DNA polymerase activity of HIV reverse transcriptase and for their ability to inhibit the RNase H activity of HIV reverse transcriptase. The assay for RNA-dependent DNA polymerase activity is discussed in Borkow, G. et al., “Inhibition of the Ribonuclease H and DNA Polymerase Activities of HIV-1 Reverse Transcriptase by N-(4-tert-Butylbenzoyl)-2-hydroxy-1-naphthaldehyde Hydrazone,” Biochemistry 1997, 36, 3179-3185, a copy of which is attached hereto and the disclosure of which is incorporated herein by reference. Assays were carried out in the absence and in the presence of mappicine analogs (10 μM final concentration). The results are reported as % residual activity, which is the RNA-dependent DNA polymerase activity of the enzyme in the presence of the mappicine analog divided by the RNA-dependent activity of the enzyme in the absence of the mappicine analog, multiplied by 100.

[2] = molecular target: T2, RNase H activity of HIV reverse transcriptase (Human immunodeficiency virus type 1 group M subtype B, UniProt P03366); experiment: Fluorescence (FRET)-based RNase H assay of HIV reverse transcriptase; assay type: biochemical, HIV-1; conditions: 10 μM inhibitor concentration, activity in presence / in absence of analog x 100
T2 construct: 2.5 nM of the p51/p66 RT heterodimer in the assay; made in house

SMILES | Residual activity (%) Polymerase [1] | Residual activity (%) RNase H [2] | further results
Cc1c(C(O)Cc2ccccc2)cc2n(c1=O)Cc1c-2nc2ccc(F)cc2c1[Si](C)(C)C (stereo not shown) [5 (5Bε)] | 49% | 88% | 
CCC(O)c1cc2n(c(=O)c1C)Cc1c-2nc2ccc(C)cc2c1[Si](C)(C)C (stereo not shown) [5 (5Cα)] | 68% | 62% | 
CCC(=O)c1cc2n(c(=O)c1C)Cc1c-2nc2ccc(C)cc2c1[Si](C)(C)C [5 (5Cακ)] | 93% | 109% | 
Cc1ccc2nc3c(c([Si](C)(C)C)c2c1)Cn1c-3cc(C(O)C(C)(C)C)c(C)c1=O (stereo not shown) [5 (5Cβ)] | 72% | 80% | 
Cc1ccc2nc3c(c([Si](C)(C)C)c2c1)Cn1c-3cc(C(=O)C(C)(C)C)c(C)c1=O [5 (5Cβκ)] | 76% | 92% | 
Cc1ccc2nc3c(c([Si](C)(C)C)c2c1)Cn1c-3cc(C(O)CCC2CCCCC2)c(C)c1=O (stereo not shown) [5 (5Cδ)] | 41% | 103% | 
Cc1ccc2nc3c(c([Si](C)(C)C)c2c1)Cn1c-3cc(C(=O)CCC2CCCCC2)c(C)c1=O [5 (5Cδκ)] | 59% | 99% | 
Cc1ccc2nc3c(c([Si](C)(C)C)c2c1)Cn1c-3cc(C(O)Cc2ccccc2)c(C)c1=O (stereo not shown) [5 (5Cε)] | 87% | 93% | 
CCC(O)c1cc2n(c(=O)c1C)Cc1c-2nc2ccc(OC)cc2c1[Si](C)(C)C (stereo not shown) [5 (5Dα)] | 88% | 78% | 
CCC(=O)c1cc2n(c(=O)c1C)Cc1c-2nc2ccc(OC)cc2c1[Si](C)(C)C [5 (5Dακ)] | 50% | 86% | 
COc1ccc2nc3c(c([Si](C)(C)C)c2c1)Cn1c-3cc(C(O)C(C)(C)C)c(C)c1=O (stereo not shown) [5 (5Dβ)] | 76% | 102% | 
COc1ccc2nc3c(c([Si](C)(C)C)c2c1)Cn1c-3cc(C(=O)C(C)(C)C)c(C)c1=O [5 (5Dβκ)] | 64% | 86% | 
COc1ccc2nc3c(c([Si](C)(C)C)c2c1)Cn1c-3cc(C(O)CCC2CCCCC2)c(C)c1=O (stereo not shown) [5 (5Dδ)] | 57% | 96% | 
COc1ccc2nc3c(c([Si](C)(C)C)c2c1)Cn1c-3cc(C(=O)CCC2CCCCC2)c(C)c1=O [5 (5Dδκ)] | 40% | 92% | 
COc1ccc2nc3c(c([Si](C)(C)C)c2c1)Cn1c-3cc(C(O)Cc2ccccc2)c(C)c1=O (stereo not shown) [5 (5Dε)] | 48% | 70% | 
CCCCCCc1c2c(nc3ccccc13)-c1cc(C(O)CC)c(C)c(=O)n1C2 (stereo not shown) [5 (8Aα)] | 42% | 83% | 
CCCCCCc1c2c(nc3ccccc13)-c1cc(C(=O)CC)c(C)c(=O)n1C2 [5 (8Aακ)] | 53% | 77% | 
CCCCCCc1c2c(nc3ccccc13)-c1cc(C(O)C(C)(C)C)c(C)c(=O)n1C2 (stereo not shown) [5 (8Aβ)] | 103% | 91% | 
CCCCCCc1c2c(nc3ccccc13)-c1cc(C(=O)C(C)(C)C)c(C)c(=O)n1C2 [5 (8Aβκ)] | 76% | 96% | 
CCCCCCc1c2c(nc3ccccc13)-c1cc(C(O)CCC3CCCCC3)c(C)c(=O)n1C2 (stereo not shown) [5 (8Aδ)] | 72% | 89% | 
CCCCCCc1c2c(nc3ccccc13)-c1cc(C(=O)CCC3CCCCC3)c(C)c(=O)n1C2 [5 (8Aδκ)] | 63% | 97% | 
CCCCCCc1c2c(nc3ccccc13)-c1cc(C(O)Cc3ccccc3)c(C)c(=O)n1C2 (stereo not shown) [5 (8Aε)] | 58% | 71% | 
CCCCCCc1c2c(nc3ccccc13)-c1cc(C(=O)Cc3ccccc3)c(C)c(=O)n1C2 [5 (8Aεκ)] | 59% | 92% | 
CCCCCCc1c2c(nc3ccc(F)cc13)-c1cc(C(O)CC)c(C)c(=O)n1C2 (stereo not shown) [5 (8Bα)] | 57% | 80% | 
CCCCCCc1c2c(nc3ccc(F)cc13)-c1cc(C(=O)CC)c(C)c(=O)n1C2 [5 (8Bακ)] | 64% | 103% | 

SMILES | Residual activity (%) Polymerase [1] | Residual activity (%) RNase H [2] | further results
CCCCCCc1c2c(nc3ccc(F)cc13)-c1cc(C(O)C(C)(C)C)c(C)c(=O)n1C2 (stereo not shown) [5 (8Bβ)] | 50% | 97% | 
CCCCCCc1c2c(nc3ccc(F)cc13)-c1cc(C(=O)C(C)(C)C)c(C)c(=O)n1C2 [5 (8Bβκ)] | 44% | 81% | 
CCCCCCc1c2c(nc3ccc(F)cc13)-c1cc(C(O)CCC3CCCCC3)c(C)c(=O)n1C2 (stereo not shown) [5 (8Bδ)] | 90% | 112% | 
CCCCCCc1c2c(nc3ccc(F)cc13)-c1cc(C(=O)CCC3CCCCC3)c(C)c(=O)n1C2 [5 (8Bδκ)] | 80% | 95% | 
CCCCCCc1c2c(nc3ccc(F)cc13)-c1cc(C(O)Cc3ccccc3)c(C)c(=O)n1C2 (stereo not shown) [5 (8Bε)] | 92% | 84% | 
CCCCCCc1c2c(nc3ccc(C)cc13)-c1cc(C(O)CC)c(C)c(=O)n1C2 (stereo not shown) [5 (8Cα)] | 84% | 65% | 
CCCCCCc1c2c(nc3ccc(C)cc13)-c1cc(C(=O)CC)c(C)c(=O)n1C2 [5 (8Cακ)] | 31% | 92% | 
CCCCCCc1c2c(nc3ccc(C)cc13)-c1cc(C(O)C(C)(C)C)c(C)c(=O)n1C2 (stereo not shown) [5 (8Cβ)] | 111% | 93% | 
CCCCCCc1c2c(nc3ccc(C)cc13)-c1cc(C(=O)C(C)(C)C)c(C)c(=O)n1C2 [5 (8Cβκ)] | 66% | 95% | 
CCCCCCc1c2c(nc3ccc(C)cc13)-c1cc(C(O)CCC3CCCCC3)c(C)c(=O)n1C2 (stereo not shown) [5 (8Cδ)] | 73% | 72% | 
CCCCCCc1c2c(nc3ccc(C)cc13)-c1cc(C(=O)CCC3CCCCC3)c(C)c(=O)n1C2 [5 (8Cδκ)] | 79% | 95% | 
CCCCCCc1c2c(nc3ccc(C)cc13)-c1cc(C(O)Cc3ccccc3)c(C)c(=O)n1C2 (stereo not shown) [5 (8Cε)] | 76% | 76% | 
CCCCCCc1c2c(nc3ccc(C)cc13)-c1cc(C(=O)Cc3ccccc3)c(C)c(=O)n1C2 [5 (8Cεκ)] | 66% | 86% | 
CCCCCCc1c2c(nc3ccc(OC)cc13)-c1cc(C(O)CC)c(C)c(=O)n1C2 (stereo not shown) [5 (8Dα)] | 85% | 66% | 
CCCCCCc1c2c(nc3ccc(OC)cc13)-c1cc(C(=O)CC)c(C)c(=O)n1C2 [5 (8Dακ)] | 51% | 84% | 
CCCCCCc1c2c(nc3ccc(OC)cc13)-c1cc(C(O)C(C)(C)C)c(C)c(=O)n1C2 (stereo not shown) [5 (8Dβ)] | 68% | 67% | 
CCCCCCc1c2c(nc3ccc(OC)cc13)-c1cc(C(=O)C(C)(C)C)c(C)c(=O)n1C2 [5 (8Dβκ)] | 90% | 88% | 
CCCCCCc1c2c(nc3ccc(OC)cc13)-c1cc(C(O)CCC3CCCCC3)c(C)c(=O)n1C2 (stereo not shown) [5 (8Dδ)] | 81% | 63% | 
CCCCCCc1c2c(nc3ccc(OC)cc13)-c1cc(C(=O)CCC3CCCCC3)c(C)c(=O)n1C2 [5 (8Dδκ)] | 65% | 90% | 
CCCCCCc1c2c(nc3ccc(OC)cc13)-c1cc(C(O)Cc3ccccc3)c(C)c(=O)n1C2 (stereo not shown) [5 (8Dε)] | 73% | 82% | 
Cc1ccc2nc3c(c(-c4ccccc4)c2c1)Cn1c-3cc(C(O)C(C)(C)C)c(C)c1=O (stereo not drawn) [5 (30β)] | 70% | 84% | 
Cc1ccc2nc3c(c(-c4ccccc4)c2c1)Cn1c-3cc(C(O)CCC2CCCCC2)c(C)c1=O (stereo not shown) [5 (30δ)] | 74% | 93% | 
CCC(O)c1cc2n(c(=O)c1C)Cc1c-2nc2ccccc2c1[Si](C)(C)C (stereo not shown) [5 (AG 1M)] |  |  | Residual activity (%) Polymerase ([1]; 10 µM): 89%; Residual activity (%) RNase H ([2]; 10 µM): 73%
CCC(O)c1cc2n(c(=O)c1C)Cc1c-2nc2ccc(N)cc2c1[Si](C)(C)C (stereo not shown) [5 (AG 3M), 2-Amino-7-(1-hydroxypropyl)-8-methyl-12-trimethylsilanyl-1 1H-indolizino[1,2-b]quinolin-9-one] |  |  | remaining activity at 10 µM ([1]; read-out: Residual activity (%) Polymerase): 123%; remaining activity at 10 µM ([2]; read-out: Residual activity (%) RNase H): 63%
CCc1c2c(nc3ccccc13)-c1cc(C(O)CC)c(C)c(=O)n1C2 (stereo not shown) [5 (AG 4M)] | 100% | 74% | 
